Values joined by “and” are separate entries in the source; they are usually repeats but may differ in a detail not shown here. Equal entries are not always repeated.
The molecules below were run on S. Typhi PhoP-promoter GFP reporter, fluorescence, 4 h (assay: PhoP regulon inhibitor project modified counter assay, GFP fluorescence readout, dose response (AID 1985)).

SMILES	IC50
O=C(Nc1nnc(C2COc3ccccc3O2)o1)c1ccc(F)cc1 (centres undefined)	40.9 µM
COc1ccc(/C=C/c2cc(-c3ccc(C)cc3)o[n+]2C)cc1	100 µM
O=C(N/N=C/c1ccccc1O)c1ccncc1	24.7 µM
Cn1c(-c2ccc3c(c2)OCO3)cnc1NCc1ccc(Cl)cc1	140 µM
O=C(Nc1nonc1NC(=O)c1cccs1)c1cccs1	100 µM
O=C(N/N=C/c1cc(Br)cc(Br)c1O)c1ccncc1	34.5 µM
CNc1nc(SC)n(C)c(=O)c1N=O	80.3 µM
Cc1cc(Cl)c(OCCCNCc2ccccc2)c(Br)c1	81.7 µM
Nc1nc2ccccc2n1Cc1ccc(Cl)c(Cl)c1	54.6 µM
O=C(Nc1ccccc1)Oc1ccc[nH]c1=O	55.8 µM
OC1CCCN(Cc2ccc3ccc4cccc5ccc2c3c45)C1 (centres undefined)	118 µM
CC1CCC(C(C)C)C(OC(=O)Cn2c(-c3ccc(Cl)cc3)[n+](C)c3ccccc32)C1 (centres undefined)	144 µM
O=C(O)/C(=C\C(=O)c1ccccc1)Nc1ccccc1	20.5 µM
Cc1ccc(C(=O)N/N=C\c2ccc([N+](=O)[O-])s2)cn1	20 µM
Oc1[nH]c2ccc(Br)cc2c1N=NC(=S)N1CCOCC1	47.3 µM
c1cnc2c(c1)ccc1cccnc12	33.7 µM and 131 µM
Nc1ncn([C@@H]2O[C@H](CO)[C@@H](O)[C@H]2O)c(=O)n1	11.2 µM
CCn1cc(C(=O)O)c(=O)c2cc(F)c(N3CCN(C(=S)NC(=O)c4cccc(F)c4)CC3)cc21	27.2 µM
O=C(Nc1cccnc1)c1cc(Br)c(Br)s1	134 µM
COc1cccc(Nc2nc(NCCO)c3ccccc3n2)c1	84.5 µM
C#CCOCCOCCOCCNc1nc(N2CCN(C(=O)CCCCCCCCCCNC(=O)[C@H]([C@@H](C)CC)n3cc(CCCCN=C(N)N)nn3)CC2)nc(N2CCN(C(=O)CCCCCCCCCCNC(=O)[C@H](CCCCN)n3cc(C)nn3)CC2)n1	69.3 µM
CC(C)(c1ccccc1)c1ccc(OCCCN2CCNCC2)cc1	114 µM
COc1c(N2CCN(C(=S)Nc3ccccc3F)C(C)C2)c(F)cc2c(=O)c(C(=O)O)cn(C3CC3)c12 (centres undefined)	0.441 µM
CCn1cc(C(=O)NCc2ccc3c(c2)OCO3)c(=O)c2cc(F)c(N3CCN(C(=O)c4ccco4)CC3)cc21	107 µM

SMILES	IC50
CN1CCN(C(c2ccc(Br)cc2)c2cc(Cl)c3cccnc3c2O)CC1 (centres undefined)	33.6 µM
CN1CCN(C2Cc3cc(Cl)ccc3Sc3cc(F)ccc32)CC1 (centres undefined)	37.5 µM
Cc1cc(C)n2nc(S(=O)(=O)Nc3c(Cl)cccc3Cl)nc2n1	11.1 µM
COc1ccc(C(=O)NC(=S)NNC(=O)c2cnccn2)cc1OC	60.1 µM
CC(NCC(O)COc1ccc2ccccc2c1)c1ccccc1 (centres undefined)	132 µM
CC[C@@H](C)[C@H](CNC)NC[C@@H](Cc1cccc2ccccc12)NCCc1cccc(C(F)(F)F)c1	21.8 µM
OCCCCNCc1ccc(OCc2ccc(Cl)cc2Cl)cc1	133 µM
CCN1CCN(C(=O)c2cc3cc(Cl)ccc3[nH]2)CC1	67.4 µM
N#C/C(=C(/O)c1ccco1)c1nc2ccccc2s1	54.8 µM
O=C(Oc1ccc[nH]c1=O)c1cc([N+](=O)[O-])cc([N+](=O)[O-])c1	46 µM
C/C(=N/Nc1ccnc2cc(Cl)ccc12)c1ccc(N)cc1	55.3 µM
CN1CCN(C2=Cc3cc(Cl)ccc3Sc3cc(F)ccc32)CC1	137 µM
O=C(Nc1nc(-c2ccccn2)cs1)c1ccc(Cl)s1	21.5 µM
Oc1cccc2ccc(Nc3ccccn3)nc12	11.6 µM
Oc1ccc(Cl)cc1Cc1cc(Cl)ccc1O	36 µM
CCCCn1c(=N)n(CC(=O)c2ccc(Br)s2)c2ccccc21	78.7 µM
CC(C)Cc1c(O)nc(SCC(=O)Nc2ccc3c(c2)CCC3)[nH]c1=O	95.4 µM
COc1ccc(NC(=O)c2[nH]ncc2[N+](=O)[O-])cc1	40.3 µM
NC(N)=N/N=C/c1ccc(OCc2ccc(Cl)cc2Cl)cc1	16.9 µM
O=C(Nc1cccc(N=Cc2cc(Cl)cc(Br)c2O)c1)c1ccco1	94.3 µM
CCn1cc(C(=O)O)c(=O)c2cc(F)c(N3CCN(C(=O)Nc4ccccc4)CC3)cc21	21.1 µM
CN(C)CCCN1c2ccccc2Sc2ccc(Cl)cc21	88.1 µM and 81.4 µM
CN(C)CCCNc1cc(C(C)(C)C)nc2c(-c3ccc(Cl)cc3)cnn12	34.8 µM
Cc1ccc(-c2cc(-c3ccc(C)cc3)[n+](-c3ccccc3)c(-c3ccc(C)cc3)c2)cc1	34.5 µM

SMILES	IC50
COc1cc(/C=C2/C(=O)NN(c3ccc(C)c(Cl)c3)C2=O)cc([N+](=O)[O-])c1O	46.6 µM
N=c1n(CCN2CCCCC2)c2ccccc2n1CC(O)c1ccc(Cl)c(Cl)c1 (centres undefined)	64.1 µM
O=C(Cc1ccccc1)N/N=C/c1cc(Br)cc(Cl)c1O	44.9 µM
Fc1ccc(Nc2nc(NCc3ccco3)c3ccccc3n2)cc1	15.1 µM
CCCCc1c(O)nc(SCC(=O)Nc2ccc3c(c2)CCC3)[nH]c1=O	30.6 µM
O/N=C/c1ccc(OCc2ccccc2)c(Cl)c1	130 µM
Clc1ccc(CN2C3=NCCN3c3ccccc32)cc1	89.4 µM
CCCCCCCCCCOC(=O)Cn1c(COc2cccc(C)c2)[n+](C)c2ccccc21	15.9 µM
Cc1ccc(NC(=O)CS(=O)CC(=O)Nc2ccccc2-c2ccc(C)o2)cc1 (centres undefined)	66.8 µM
c1ccc2c(c1)CSc1sccc1C2=C1CCNCC1	106 µM
[O-][n+]1cccc2c(Br)cc(Br)c(O)c21	21.9 µM
CNCc1c(OCc2ccccc2F)ccc2ccccc12	127 µM
COc1ccc(OCC(O)CNc2ccc(Br)cc2)cc1 (centres undefined)	3.55 µM
O=[N+]([O-])c1ccc(/C=[N+](\[O-])CCO)o1	33.6 µM
Cc1ccc2c(c1)sc(-c1ccc(N(C)C)cc1)[n+]2C	23.6 µM
CC1=NN(c2nc3ccccc3[nH]2)C(=O)C1Cc1ccccc1 (centres undefined)	36.5 µM
CCCCCCCC(=O)N/N=C/c1ccc([N+](=O)[O-])o1	30.2 µM
Cc1ccc2nc(NCc3ccccc3)[nH]c2c1	72.6 µM
CO[C@@]1(NC(=O)Cc2cccs2)C(=O)N2C(C(=O)O)=C(COC(N)=O)CS[C@@H]21	40.5 µM
CCCCCCCCCCCCCCCCn1cc[n+](C)c1	19.1 µM
CCCCCCCCCCOC(=O)Cn1c(COc2ccccc2C)[n+](C)c2ccccc21	21.3 µM
[O-][n+]1c2ccccc2cc2ccccc21	88 µM
Cc1cccn2c(=O)c(C=O)c(Cl)nc12	140 µM
CNCC[C@H](Oc1cccc2ccccc12)c1cccs1	106 µM

SMILES	IC50
CN(C)CC/C=C1\c2ccccc2Sc2cc(F)c(Cl)cc21	65.4 µM
CCOC(=O)N1CCC(=NNc2ccnc3cc(Cl)ccc23)CC1	61.2 µM
Cc1ccc(NC(=O)CSC(N)=O)cc1Cl	33.4 µM
COc1ccc(Nc2ccnc3ccccc23)cc1	85.8 µM
Cc1cc(C)n(-c2nc(NCCN(C)C)c3c4c(sc3n2)CCCC4)n1	99.4 µM
O=Cc1ccc(O)cc1O	109 µM
CCOc1ccc(Nc2c3ccccc3nc3ccccc23)cc1	56.7 µM
Cc1ccc(OCc2nnc(NC(=O)c3cccnc3)s2)cc1	13.9 µM
CCCCOc1ccc(OCCNC(=O)c2ccco2)cc1	65.4 µM
O=C(N/N=C/c1ccc([N+](=O)[O-])s1)c1cccnc1	22.8 µM
CCCCCCCSc1cc(OC)c(CCN(C)C)cc1OC	83.5 µM
CCCCCc1ccc(OCCC[n+]2ccccc2)c(CCCCC)c1	82.7 µM
C[C@H]1c2cccc(O)c2C(O)=C2C(=O)[C@]3(O)C(O)=C(C(N)=O)C(=O)[C@@H](N(C)C)C3[C@@H](O)C21 (some centres undefined)	1.19 µM
COc1ccc(CNc2ncnc3c2[nH]c2ccccc23)cc1	59.2 µM
Oc1c(Br)cc(Br)cc1C=Nc1ccc2[nH]ncc2c1	48.6 µM
COc1ccc2[nH]c3c(C)c4ccncc4c(C)c3c2c1	39.2 µM
O=C1C=CC(=O)N1CCCCCCN1C(=O)C=CC1=O	112 µM
CC[n+]1c(/C=C/C=C/c2ccc(N(C)C)cc2)sc2ccccc21	35.7 µM
CC[N+](C)(CC)CCC[n+]1c(-c2ccccc2)c2cc(N)ccc2c2ccc(N)cc21	53.4 µM
CCSc1ccc2c(c1)N(CCCN1CCN(C)CC1)c1ccccc1S2	131 µM
NC(=O)SCC(=O)Nc1ccc(Cl)c(Cl)c1	52.2 µM
Cc1cc(NC(=O)c2ccccc2)sc1C	84.3 µM
Cc1ccc(C[n+]2c(-c3ccc(C)cc3)cc(-c3ccc(C)cc3)cc2-c2ccc(C)cc2)cc1	15.6 µM
Fc1ccc(CCNCc2ccccc2Cl)cc1	69.7 µM

SMILES	IC50
COc1cccc(/C=N/NC(=O)CSCC(=O)Nc2ccccc2)c1O	92.5 µM
CO[C@H]1C=CO[C@@]2(C)Oc3c(C)c(O)c4c(O)c(c5c(c4c3C2=O)NC2(CCN(CC(C)C)CC2)N=5)=NC(=O)C(C)=CC=C[C@H](C)[C@H](O)[C@@H](C)[C@@H](O)[C@@H](C)[C@H](OC(C)=O)[C@@H]1C	4.08 µM
O=[N+]([O-])/C=C/c1cc2ccccc2[nH]1	64.9 µM
O=c1c2ccccc2[nH]c2ccc(F)cc12	71.2 µM
Cc1cc(NC2CCCCC2)nc(NCc2ccccc2)n1	77.9 µM
O=C(N/N=C\C=C\c1ccc([N+](=O)[O-])o1)c1cccs1	27.8 µM
Cc1cc(OCCCCCN2CCCC2)ccc1Cl	112 µM
O=C(N/N=C/c1cc(Br)ccc1O)c1ccncc1	29.9 µM
O=C(N/N=C/c1cc(Cl)ccc1O)c1cccnc1	28.2 µM
CCn1cc(C(=O)O)c(=O)c2cc(F)c(N3CCN(C)CC3)cc21	0.427 µM
O=C(Nc1ccc2nc(-c3ccc(Br)o3)[nH]c2c1)c1ccco1	130 µM
COc1ccc(OCc2n(CC(=O)OC3CC(C)CCC3C(C)C)c3ccccc3[n+]2C)cc1 (centres undefined)	80.6 µM
Cc1cccc2sc(N(CCCN(C)C)C(=O)COc3ccc(Cl)cc3)nc12	79 µM
O=C(Nc1nnc(-c2cccs2)o1)c1cccc(Oc2ccccc2)c1	39.9 µM
CN1CCN(Cc2cc(COCc3ccccc3)c3cccnc3c2O)CC1	62.9 µM
O=C1NCCCC1C(=O)N/N=C/c1cc([N+](=O)[O-])ccc1O (centres undefined)	114 µM
O=C(Nc1ccc([N+](=O)[O-])cc1Cl)c1cc(Cl)ccc1O	76 µM
CCOC(=O)N/N=C(/C)c1ccc([N+](=O)[O-])o1	45.8 µM
NC1=C(Br)C(=O)c2ccccc2C1=O	20.1 µM
O=C(Nc1nnc(C(F)(F)F)s1)c1ccc(Br)s1	66.8 µM
OCCNc1nc(Nc2ccccc2)nc2ccccc12	35.2 µM
CC1CCc2c(N3CCC(O)CC3)c(F)cc3c(=O)c(C(=O)O)cn1c23 (centres undefined)	4.44 µM
Cc1cc(C(C)(C)CC(C)(C)C)ccc1OCCOCC[N+](C)(C)Cc1ccccc1	31.6 µM
